The values below come from PubChem BioAssay AID1918947 (Molecular Pharmacology Branch, DTP, NCI, 2023).

pIC50: −log10 of the molar value. Several values for one entry are separate records, joined by “and”; a condition that tells them apart may be missing. Equal entries are not always repeated. Some results are limits rather than exact numbers.

The experiment deals with A498 complex spheroid viability. Description: Anticancer human tumor A498 cell line growth inhibition.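 As to all read-outs here: spheroids exposed to agents for seven days before readout.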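 As to viability, T/C: 100% = DMSO vehicle-treated spheroids.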 Conditions: for viability, T/C: stronger effect = lower value. An outline of the steps:
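Complex spheroids of tumor cells with HUVEC and human MSCs, exposed to iadademstat combined with other agents. Each agent tested in half-log steps from near clinical Cmax (else 10 microM top), DMSO ≤0.25%.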

[1] abbreviates: curve of first compound, second compound 0.1 µM.
Setting [2] is: curve of first compound, second compound 0.316 µM.
Where [3] appears, read: curve of first compound, second compound 1 µM.
The mark [4] stands for this setting: curve of first compound, second compound 3.16 µM.
Setting [5] is: curve of first compound, second compound 10 µM.
Setting [6] is: second compound 0.1 µM, first compound 0.0316 µM.
Setting [7] is: second compound 0.1 µM, first compound 0.1 µM.
The mark [8] stands for this setting: second compound 0.1 µM, first compound 0.316 µM.
Setting [9] is: second compound 0.1 µM, first compound 1 µM.
[10] abbreviates: second compound 0.316 µM, first compound 0.0316 µM.
[11] abbreviates: second compound 0.316 µM, first compound 0.1 µM.
Where [12] appears, read: second compound 0.316 µM, first compound 0.316 µM.
Setting [13] is: second compound 0.316 µM, first compound 1 µM.
Where [14] appears, read: second compound 1 µM, first compound 0.0316 µM.
Setting [15] is: second compound 1 µM, first compound 0.1 µM.
Setting [16] is: second compound 1 µM, first compound 0.316 µM.
Where [17] appears, read: second compound 1 µM, first compound 1 µM.
[18] abbreviates: second compound 3.16 µM, first compound 0.0316 µM.
Setting [19] is: second compound 3.16 µM, first compound 0.1 µM.
[20] abbreviates: second compound 3.16 µM, first compound 0.316 µM.
[21] abbreviates: second compound 3.16 µM, first compound 1 µM.
Setting [22] is: second compound 10 µM, first compound 0.0316 µM.
Setting [23] is: second compound 10 µM, first compound 0.1 µM.
The mark [24] stands for this setting: second compound 10 µM, first compound 0.316 µM.
Where [25] appears, read: second compound 10 µM, first compound 1 µM.

For orientation: pIC50 means the negative decadic logarithm of the IC50, by convention in mol/L. Broadly, the viability, T/C is the ratio of treated to control. In the case of `CCc1c2c(nc3ccc(O)cc13)-c1cc3c(c(=O)n1C2)COC(=O)[C@]3(O)CC` + NC1CCC(NC2CC2c2ccccc2)CC1, the pIC50 is over 9.02 under setting [1]; over 9.02 under setting [2]; over 9.02 under setting [3]; over 9.02 under setting [4]; over 9.02 under setting [5]. Moreover, the viability, T/C (second compound 0.1 µM, first compound 0.000949 µM) was 44.1%; the viability, T/C (second compound 0.1 µM, first compound 0.003 µM) was 34.7%; the viability, T/C (second compound 0.1 µM, first compound 0.00949 µM) was 26.7%; the viability, T/C (second compound 0.1 µM, first compound 0.03 µM) is 3.44%; the viability, T/C (second compound 0.1 µM, first compound 0.0949 µM) is 0.09%; the viability, T/C (second compound 0.1 µM, first compound 0.3 µM) is 0.11%. The viability, T/C reads like this: (second compound 0.316 µM, first compound 0.000949 µM) 46%; (second compound 0.316 µM, first compound 0.003 µM) 33%; (second compound 0.316 µM, first compound 0.00949 µM) 26.4%; (second compound 0.316 µM, first compound 0.03 µM) 3.19%; (second compound 0.316 µM, first compound 0.0949 µM) 0.19%; (second compound 0.316 µM, first compound 0.3 µM) 0.12%. Moreover, the viability, T/C (second compound 1 µM, first compound 0.000949 µM) was 47.1%; the viability, T/C (second compound 1 µM, first compound 0.003 µM) was 37.2%; the viability, T/C (second compound 1 µM, first compound 0.00949 µM) is 25.6%; the viability, T/C (second compound 1 µM, first compound 0.03 µM) is 3.37%; the viability, T/C (second compound 1 µM, first compound 0.0949 µM) is 0.22%; the viability, T/C (second compound 1 µM, first compound 0.3 µM) was 0.47%. The viability, T/C reads like this: (second compound 3.16 µM, first compound 0.000949 µM) 44.5%; (second compound 3.16 µM, first compound 0.003 µM) 34.5%; (second compound 3.16 µM, first compound 0.00949 µM) 27.7%; (second compound 3.16 µM, first compound 0.03 µM) 1.91%; (second compound 3.16 µM, first compound 0.0949 µM) 0.05%; (second compound 3.16 µM, first compound 0.3 µM) 0.11%. In addition, the viability, T/C is, setting by setting: (second compound 10 µM, first compound 0.000949 µM) 42.5%; (second compound 10 µM, first compound 0.003 µM) 31%; (second compound 10 µM, first compound 0.00949 µM) 26%; (second compound 10 µM, first compound 0.03 µM) 4.35%; (second compound 10 µM, first compound 0.0949 µM) 0.12%; (second compound 10 µM, first compound 0.3 µM) 0.17%.
For `CCN(c1cc(-c2ccc(CN3CCOCC3)cc2)cc(C(=O)NCc2c(C)cc(C)[nH]c2=O)c1C)C1CCOCC1`, the viability, T/C was 98.7% and 101% (compound 0.00949 µM); 108% and 107% (compound 0.03 µM); 98.7% and 102% (compound 0.0949 µM); 103% (compound 0.3 µM); 107% and 105% (compound 0.949 µM); 112% and 113% (compound 3 µM). For the setting “curve of compound”, the negative logarithm of the IC50 (pIC50) is under 5.52.
Turning to `COc1ccc([C@@H](O)c2cc(-c3ncnc4cc(N5CCOCC5)ccc34)c(F)cc2Cl)nn1` + NC1CC1c1ccc(-c2cccc(O)c2)cc1, the pIC50 is, setting by setting: under setting [1], 7.02; under setting [2], 6.95; under setting [3], 7.02; under setting [4], 7.05; under setting [5], 7.16. For the same compound, the viability, T/C is, setting by setting: under setting [6], 75%; under setting [7], 49.5%; under setting [8], 28.1%; under setting [9], 16.7%; (second compound 0.1 µM, first compound 3.16 µM) 9.62%; (second compound 0.1 µM, first compound 10 µM) 5.97%. The viability, T/C is 80.4% under setting [10]; 52.9% under setting [11]; 28.8% under setting [12]; 19.5% under setting [13]; 9.72% (second compound 0.316 µM, first compound 3.16 µM); 6.4% (second compound 0.316 µM, first compound 10 µM). The viability, T/C reads like this: under setting [14], 70.6%; under setting [15], 50.1%; under setting [16], 27.4%; under setting [17], 17.2%; (second compound 1 µM, first compound 3.16 µM) 9.2%; (second compound 1 µM, first compound 10 µM) 6.15%. In addition, the viability, T/C reads like this: under setting [18], 73.1%; under setting [19], 46.8%; under setting [20], 29.7%; under setting [21], 16.7%; (second compound 3.16 µM, first compound 3.16 µM) 8.9%; (second compound 3.16 µM, first compound 10 µM) 5.52%. The viability, T/C runs as follows: under setting [22], 67.1%; under setting [23], 42.5%; under setting [24], 24.5%; under setting [25], 16.6%; (second compound 10 µM, first compound 3.16 µM) 8.67%; (second compound 10 µM, first compound 10 µM) 5.51%.
With `CC1COCCN1c1cc(-c2ccnn2C)c2ccnc(-c3ccn[nH]3)c2n1` (configuration not stated) + NC1CCC(NC2CC2c2ccccc2)CC1, the negative logarithm of the IC50 (pIC50) was 7.66 under setting [1]; 7.61 under setting [2]; 7.61 under setting [3]; 7.64 under setting [4]; 7.85 under setting [5]. Also, the viability, T/C (second compound 0.1 µM, first compound 0.00316 µM) is 83.9%; the viability, T/C (second compound 0.1 µM, first compound 0.01 µM) is 76.2%; the viability, T/C under setting [6] is 37.5%; the viability, T/C under setting [7] was 16.3%; the viability, T/C under setting [8] is 14%; the viability, T/C under setting [9] is 9.97%. Besides, the viability, T/C is, setting by setting: (second compound 0.316 µM, first compound 0.00316 µM) 89.7%; (second compound 0.316 µM, first compound 0.01 µM) 79.6%; under setting [10], 41.3%; under setting [11], 19.1%; under setting [12], 14.3%; under setting [13], 10.5%. Besides, the viability, T/C runs as follows: (second compound 1 µM, first compound 0.00316 µM) 84.8%; (second compound 1 µM, first compound 0.01 µM) 74.4%; under setting [14], 42.8%; under setting [15], 19.3%; under setting [16], 15%; under setting [17], 9.26%. Also, the viability, T/C reads like this: (second compound 3.16 µM, first compound 0.00316 µM) 81.5%; (second compound 3.16 µM, first compound 0.01 µM) 71.2%; under setting [18], 41.4%; under setting [19], 19.4%; under setting [20], 14.8%; under setting [21], 9.59%. Also, the viability, T/C (second compound 10 µM, first compound 0.00316 µM) is 71.5%; the viability, T/C (second compound 10 µM, first compound 0.01 µM) is 58.9%; the viability, T/C under setting [22] is 30.7%; the viability, T/C under setting [23] is 22.7%; the viability, T/C under setting [24] was 13.9%; the viability, T/C under setting [25] was 9.55%.
As for `NC1CC1c1ccc(-c2cccc(O)c2)cc1` (configuration not stated), the viability, T/C reads like this: (compound 0.316 µM) 104% [middle of 25 runs]; (compound 10 µM) 94.1% [middle of 25 runs]. The negative logarithm of the IC50 (pIC50) (compound alone, run of 12/07/2021) is under 5.00.
In the case of `O=C(c1cc(Cc2n[nH]c(=O)c3ccccc23)ccc1F)N1CCN(C(=O)C2CC2)CC1`, the viability, T/C (compound 0.0316 µM) is 99% and 102%; the viability, T/C (compound 0.1 µM) was 108% and 105%; the viability, T/C (compound 0.316 µM) is 96% and 101%; the viability, T/C (compound 1 µM) was 102% and 101%; the viability, T/C (compound 3.16 µM) is 103% and 93.4%; the viability, T/C (compound 10 µM) was 88.9% and 84.9%. Also, the pIC50 (curve of compound) is under 5.00.
